Drawing on patent US12606541B2, “PPARg modulators and methods of use” (Eisai R&D Management Co., Ltd., priority 2020, dated 2026), this text covers AC50 and IC50 for 21 molecules.

Assay [1] concerns the target T1, His6-TEV-PPARγ-(234-505) (Homo sapiens, UniProt P37231).
T1 construct: The His6-TEV-PPARγ-(234-505) protein for assay was expressed and purified; TEV cleavage site (N); made in house
T1 sequence (P37231 234-505): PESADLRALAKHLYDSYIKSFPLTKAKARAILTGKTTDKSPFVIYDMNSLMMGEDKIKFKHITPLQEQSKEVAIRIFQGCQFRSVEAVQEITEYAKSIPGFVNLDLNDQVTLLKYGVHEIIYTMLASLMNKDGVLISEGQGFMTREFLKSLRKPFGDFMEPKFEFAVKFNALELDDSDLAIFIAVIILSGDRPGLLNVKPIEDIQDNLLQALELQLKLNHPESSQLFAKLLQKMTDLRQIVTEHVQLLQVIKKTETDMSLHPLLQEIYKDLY
Description: TR-FRET Assay to Measure Co-R Peptide Recruitment to PPARγ. The format is biochemical. As to conditions: Co-R peptide (SMRT-ID2) recruitment; top final concentration 20 μM; read-out: TR-FRET i-Ag; AC50. Put shortly: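 Corepressor recruitment is measured by adding terbium-labeled anti-His antibody and FITC SMRT-ID2 peptide, at 5 and 200 nM final, after a 20-minute room-temperature protein–compound incubation. After one further hour, signal is converted to percent response between DMSO and 500 nM T0070907 wells.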

The test system of assay [2] is UM-UC-9 engineered cells. The assay is described as follows: Cell proliferation / short-term viability assay, CellTiter-Glo 144 h. The assay is classed as cell-based, human. As to conditions: read-out: CTGlo 144 h UMUC9.5, G150. An outline of the steps: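 Viability read by CellTiter-Glo 2.0 luminescence at day 7 versus DMSO-vehicle wells and a T0 plate measured on day 0. Cells: UM-UC-9 engineered assay-ready stocks, 500 cells/well in high-glucose DMEM with 10% FBS, 37° C, 5% CO2.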

Like-named read-outs stand apart in the source and are kept apart here.

On to `COc1cc(-c2cc(C(=O)N3CCC(C(=O)NCc4ncccc4Cl)CC3)n[nH]2)c(Cl)cn1` [Example 140, 1-(5-(5-chloro-2-methoxypyridin-4-yl)-1H-pyrazole-3-carbonyl)-N-((3-chloropyridin-2-yl)methyl)piperidine-4-carboxamide], for which the AC50 in assay [1] worked out at 85.4 nM. Also, in assay [2] (Homo sapiens, UM-UC-9, 144 h), the IC50 came out at 634 nM.
As to “(R)-4-(5-(5-fluoro-2-methoxy-3-methylpyridin-4-yl)-1H-pyrazole-3-carbonyl)-N-((1r,4R)-4-hydroxy-4-(trifluoromethyl)cyclohexyl)-4-azaspiro[2.5]octane-7-carboxamide and (S)-4-(5-(5-fluoro-2-methoxy-3-methylpyridin-4-yl)-1H-pyrazole-3-carbonyl)-N-((1r,4S)-4-hydroxy-4-(trifluoromethyl)cyclohexyl)-4-azaspiro[2.5]octane-7-carboxamide [Example 493]”, the AC50 in assay [1] was 12.6 nM. In addition, the IC50 in assay [2] amounted to 88.6 nM.
Consider `Cc1cc(-c2cc(C(=O)N3CCC(C(=O)NCc4ccc5[nH]nc(F)c5c4)CC3)n[nH]2)c(F)cn1` [Example 269, N-[(3-fluoro-1H-indazol-5-yl)methyl]-1-[5-(5-fluoro-2-methylpyridin-4-yl)-1H-pyrazole-3-carbonyl]piperidine-4-carboxamide], for which the AC50 in assay [1] worked out at 12 nM. Also, the IC50 in assay [2] (Homo sapiens, UM-UC-9, 144 h) was determined as 160 nM.
Turning to “(S)—N-((4S,7r)-3,3-difluoro-1-oxaspiro[3.5]nonan-7-yl)-4-(5-(5-fluoro-2-methoxypyridin-4-yl)-1H-pyrazole-3-carbonyl)-4-azaspiro[2.5]octane-7-carboxamide and (S)—N-((4R,7s)-3,3-difluoro-1-oxaspiro[3.5]nonan-7-yl)-4-(5-(5-fluoro-2-methoxypyridin-4-yl)-1H-pyrazole-3-carbonyl)-4-azaspiro[2.5]octane-7-carboxamide [Example 374]”, the AC50 in assay [1] came to 13.1 nM. For the same molecule, the IC50 in assay [2] stood at 15.8 nM.
Take `COc1cc(-c2cc(C(=O)N3CCC(C(=O)NCc4cn5cccc(F)c5n4)CC3)n[nH]2)c(Cl)cn1` [Example 214, 1-(5-(5-chloro-2-methoxypyridin-4-yl)-1H-pyrazole-3-carbonyl)-N-((8-fluoroimidazo[1,2-a]pyridin-2-yl)methyl)piperidine-4-carboxamide]: the AC50 in assay [1] came out at 194 nM. Also, the IC50 in assay [2] (Homo sapiens, UM-UC-9, 144 h) worked out at 1590 nM.
In the case of “(S)-4-(5-(5-fluoro-2-methoxypyridin-4-yl)-1H-pyrazole-3-carbonyl)-N—((S)-1-(oxetan-3-yl)piperidin-3-yl)-4-azaspiro[2.5]octane-7-carboxamide and (S)-4-(5-(5-fluoro-2-methoxypyridin-4-yl)-1H-pyrazole-3-carbonyl)-N—((R)-1-(oxetan-3-yl)piperidin-3-yl)-4-azaspiro[2.5]octane-7-carboxamide [Example 421]”, in assay [1], the AC50 was 182 nM. The IC50 in assay [2] is 365 nM.
As to `COc1cc(-c2cc(C(=O)N3CC[C@H](C(=O)N[C@H]4CC[C@@](O)(C(F)(F)F)CC4)CC34CC4)n[nH]2)c(F)cn1` (single isomer, unassigned) [Example 169-B], in assay [1], the AC50 was found to be 2.3 nM. Further, the IC50 in assay [2] (Homo sapiens, UM-UC-9, 144 h) amounted to 1.4 nM.
For `Cc1cc(-c2cc(C(=O)N3CC[C@H](C(=O)NC4CCC5(CCO5)CC4)CC34CC4)n[nH]2)ncn1` (stereo partly drawn) [Example 300-B, (S)-4-(5-(6-methylpyrimidin-4-yl)-1H-pyrazole-3-carbonyl)-N-(1-oxaspiro[3.5]nonan-7-yl)-4-azaspiro[2.5]octane-7-carboxamide], the AC50 in assay [1] came to 995 nM. For the same molecule, the IC50 in assay [2] (Homo sapiens, UM-UC-9, 144 h) worked out at 1510 nM.
Consider `COc1cc(-c2cc(C(=O)N3CC[C@H](C(=O)NC4CCC(C(F)(F)F)C(O)C4)CC34CC4)n[nH]2)c(F)cn1` (single isomer, unassigned) [Example 501-A], for which, in assay [1], the AC50 was determined as 7.8 nM. In addition, in assay [2], the IC50 was found to be 21.4 nM.
With `COc1cc(-c2cc(C(=O)N3CCC(C(=O)NCc4ccc5[nH]c(C)c(C)c5c4)CC3)n[nH]2)c(F)cn1` [Example 272, N-[(2,3-dimethyl-1H-indol-5-yl)methyl]-1-[5-(5-fluoro-2-methoxypyridin-4-yl)-1H-pyrazole-3-carbonyl]piperidine-4-carboxamide], in assay [1], the AC50 was found to be 9 nM. The IC50 in assay [2] (Homo sapiens, UM-UC-9, 144 h) worked out at 111 nM.
In the same order, the values of `COc1cc(-c2cc(C(=O)N3CCC(C(=O)NC4CCN(C)c5ccccc54)CC3)n[nH]2)c(Cl)cn1` (racemic) [Example 186, 1-(5-(5-chloro-2-methoxypyridin-4-yl)-1H-pyrazole-3-carbonyl)-N-(1-methyl-1,2,3,4-tetrahydroquinolin-4-yl)piperidine-4-carboxamide] are 202 nM and 339 nM.
In the same order, the values of `COc1cc(-c2cc(C(=O)N3CC[C@H](C(=O)N[C@H]4CC[C@@](O)(C(F)(F)F)CC4)CC34CC4)n[nH]2)c(Cl)cn1` (single isomer, unassigned) [Example 286-B] are 2.2 nM and 1.5 nM.
With `COc1cc(-c2cc(C(=O)N3CC[C@H](C(=O)NC4(c5ncc(Cl)cc5Cl)CC4)CC34CC4)n[nH]2)c(F)cn1` [Example 458, (S)—N-(1-(3,5-dichloropyridin-2-yl)cyclopropyl)-4-(5-(5-fluoro-2-methoxypyridin-4-yl)-1H-pyrazole-3-carbonyl)-4-azaspiro[2.5]octane-7-carboxamide], the AC50 in assay [1] worked out at 3.8 nM. In addition, in assay [2] (Homo sapiens, UM-UC-9, 144 h), the IC50 is 26.6 nM.
For `COc1cnc(CNC(=O)[C@H]2CCN(C(=O)c3cc(-c4cc(OC)ncc4F)[nH]n3)C3(CC3)C2)c(Cl)c1` [Example 402, (S)—N((3-chloro-5-methoxypyridin-2-yl)methyl)-4-(5-(5-fluoro-2-methoxypyridin-4-yl)-1H-pyrazole-3-carbonyl)-4-azaspiro[2.5]octane-7-carboxamide], in that order: 10.8 nM and 2.9 nM.
For `COc1cc(-c2cc(C(=O)N3CCC(C(=O)NCC4CC(C)(C)O4)CC3)n[nH]2)c(Cl)cn1` (racemic) [Example 135, 1-(5-(5-chloro-2-methoxypyridin-4-yl)-1H-pyrazole-3-carbonyl)-N-((4,4-dimethyloxetan-2-yl)methyl)piperidine-4-carboxamide], in that order: 483 nM and 2650 nM.
For `COc1cc(-c2cc(C(=O)N3[C@@H]4CC[C@H]3C[C@H](C(=O)NC3CCC5(CC3)OCCC5(F)F)C4)n[nH]2)c(F)cn1` (mixture of isomers) [Example 320, (1R,3s,5S)—N-(4,4-difluoro-1-oxaspiro[4.5]decan-8-yl)-8-(5-(5-fluoro-2-methoxypyridin-4-yl)-1H-pyrazole-3-carbonyl)-8-azabicyclo[3.2.1]octane-3-carboxamide], in that order: 10.4 nM and 29.5 nM.
Regarding `COc1cc(-c2cc(C(=O)N3CC[C@H](C(=O)Nc4ccc5c(c4)COB5O)CC34CC4)[nH]n2)c(F)cn1` [Example 523, (S)-4-(3-(5-fluoro-2-methoxypyridin-4-yl)-1H-pyrazole-5-carbonyl)-N-(1-hydroxy-1,3-dihydrobenzo[c][1,2]oxaborol-5-yl)-4-azaspiro[2.5]octane-7-carboxamide], the AC50 in assay [1] turned out to be 5.3 nM. For the same molecule, in assay [2] (Homo sapiens, UM-UC-9, 144 h), the IC50 stood at 54.3 nM.
In the same order, the values of `COc1cc(-c2cc(C(=O)N3CCC(C(=O)NC4CCC(C)CC4)CC3)n[nH]2)ccn1` (mixture of isomers) [Example 105, 1-(5-(2-methoxypyridin-4-yl)-1H-pyrazole-3-carbonyl)-N-(4-methylcyclohexyl)piperidine-4-carboxamide] are 537 nM and 1020 nM.
In the same order, the values of `COc1cc(-c2cc(C(=O)N3CCC(C(=O)NC4COC(C)OC4)CC3)n[nH]2)c(Cl)cn1` (mixture of isomers) [Example 121, 1-[5-(5-Chloro-2-methoxypyridin-4-yl)-1H-pyrazole-3-carbonyl]-N-(2-methyl-1,3-dioxan-5-yl) piperidine-4-carboxamide] are 807 nM and 2220 nM.
Turning to `COc1cc(-c2cc(C(=O)N3CC[C@H](C(=O)NCc4ncc(F)cc4Cl)CC34CC4)n[nH]2)c(F)cn1` [Example 362, (S)—N-((3-chloro-5-fluoropyridin-2-yl)methyl)-4-(5-(5-fluoro-2-methoxypyridin-4-yl)-1H-pyrazole-3-carbonyl)-4-azaspiro[2.5]octane-7-carboxamide], in assay [1], the AC50 was 3.7 nM. Besides, in assay [2] (Homo sapiens, UM-UC-9, 144 h), the IC50 stood at 8.7 nM.
For the molecule `COc1cc(-c2cc(C(=O)N3CC[C@@H](C(=O)N[C@H]4CC[C@@](O)(C(F)(F)F)CC4)CC34CC4)n[nH]2)c(Cl)cn1` (single isomer, unassigned) [Example 286-A], the AC50 in assay [1] turned out to be 304 nM. The IC50 in assay [2] (Homo sapiens, UM-UC-9, 144 h) was 460 nM.
